# Reference: US7049293B2, “Peptide and osteogenetic accelerator” (Kyocera Corporation, priority 1998, dated 2006)
# Residues, ends and D or L forms follow the SMILES beside them.
# Legend:
# [1] = system: rats; assay: Acute toxicity test on rats; type: in vivo, rats (Lewis); conditions: 500 μg intraperitoneally three times in a week
# Procedure: A PBS solution of 500 μg of the peptide described in Example 1 was intraperitoneally administered to six-week-old female rats (Lewis, purchased from Nippon SLC) three times in a week. […] Neither were the rats observed to have a poor coat of fur or any abnormal behavior during the test.
# [2] = system: rat bone marrow cells; assay: Cytotoxicity test in vitro, rat bone marrow cells (colony count, Giemsa staining); type: cell-based, rats (Lewis); conditions: 30 μg/ml, seven days
# Text: Femurs were aseptically taken out of six-week-old female rats (Lewis, purchased from Nippon SLC). Both ends of the femurs were cut off. Then bone marrow was extruded into centrifugal tubes by means of Eagle's MEM containing 10% of fetal bovine serum using an injection syringe with a 21 G injection needle. The bone marrow cells were sufficiently dispersed with a pipette and filtered through a 40 μm filter to remove agglutinations. The resulting bone marrow cells were centrifuged with Eagle's MEM containing 10% of fetal bovine serum three times (1200 rpm, 5 min.×3), and then the number of cells was counted. The bone marrow cells were diluted with Alpha MEM containing 10% of fetal bovine serum so that relatively large bone marrow cells were present in a concentration of 10^6/ml. The dilution was pipetted 10 ml in each culture flask having a culture area of 25 cm^2 and incubated at 37° C. in the presence of 5% CO2. […]
# Twenty-four hours after the incubation was started, culture medium was removed and Alpha MEM containing 10% of fetal bovine serum and 30 μg/ml of the peptide described in Example 1 was added to the cells under culture. […] After seven days, the number of formed colonies of bone marrow cells was counted using Giemsa staining. […]
# [3] = system: C3H10T1/2 cells; assay: Cytotoxicity test in vitro, C3H10T1/2 cells (protein concentration, BCA); type: cell-based; conditions: 100 μg/ml, six days
# Procedure: C3H10T1/2 cells were dispersed in Eagle's MEM containing 10% fetal bovine serum, pipetted on a 96-well culture plate, 3750 cells per well, and incubated at 37° C. in the presence of 5% CO2. Into the wells, a PBS solution of the peptide described in Example 1 was added so that the resulting concentration became 100 μg/ml, followed by incubation under the same conditions for six days. Then the culture medium was removed and a cytolytic solution (0.1M Tris-HCl buffer containing 1% Triton X-100, pH 9) was added to dissolve cells. Then the concentration of protein was determined using BCA reagent (produced by Funakoshi Kabushiki Kaisha).
structure (smiles),measurement,setting,value
CC[C@H](C)[C@H](NC(=O)[C@H](C)NC(=O)[C@H](CO)NC(=O)[C@H](CC(C)C)NC(=O)[C@H](CCC(=O)O)NC(=O)[C@@H](NC(=O)[C@@H]1CCCN1C(=O)[C@@H](NC(=O)[C@H](CS)NC(=O)[C@H](CS)NC(=O)[C@H](C)NC(=O)[C@H](CCCCN)NC(=O)[C@@H]1CCCN1C(=O)[C@@H](NC(=O)[C@H](CCCCN)NC(=O)[C@H](CO)NC(=O)[C@H](CC(N)=O)NC(=O)[C@@H](NC(=O)[C@H](CO)NC(=O)[C@@H](N)CC(N)=O)C(C)C)[C@@H](C)CC)C(C)C)[C@@H](C)O)C(=O)O [Example 1] (H-NSVNSKIPKACCVPTELSAI-OH),increase in weight,"[1]; after a week, n=6, PBS control 23±5",25 ± 6 g
same,acute toxicity (conclusion),[1]; no poor coat of fur or abnormal behavior,no significant acute toxicity
same,number of formed colonies of bone marrow cells,"[2]; average per flask, PBS control 89",101
same,cytotoxicity (conclusion),[2]; rat bone marrow cells,did not have cytotoxicity
same,cytotoxicity (conclusion),[3]; C3H10T1/2 cells,did not have cytotoxicity
same,concentration of protein,"[3]; n=12, PBS control 0.07±0.03",120 ± 20 µg/mL
